“Also recorded” adds a separate entry of the source. Marks after values point to notes of the source that are not given here.

Data set [1] in a line: Preclinical rat studies of CTT1403 kidney exposure. Format: in vivo. From the text: CTT1403 localization in various organs is accomplished by estimating dosimetry using SPECT/CT or SPECT/MRI imaging of the radioisotope component (using the gamma particle emission) of CTT1403, ^177Lu, up to 8 days after the first dose. […] Preclinical studies in rats with CTT1403 identified the kidneys as the dose limiting organ. Table 2, below, summarizes kidney dosimetry calculated from the first 15 patients enrolled in the study after receipt of escalating doses of CTT1403 and contrasts it with the predicted kidney exposure from rat studies. […] Preclinical studies in rats estimated expected kidney exposure of ˜5.2 Gy/GBq. […] CTT1403 may be sequestered in tumors and under exposing the kidney.

The test system of a further data set is PSMA+ tumors. Put plainly: Tumor dosimetry and uptake by SPECT imaging in patients. It is filed as in vivo, human. From the text: In addition to assessing radiation exposure to dose limiting organs, it is also feasible to use SPECT/CT or SPECT/MRI imaging and dosimetry to estimate CTT1403 dose to the tumor, which could indicate efficacy.
CTT1057 PSMA+ PET is used to screen patients for PSMA avid tumors prior to enrollment into the clinical trial. SPECT/CT images are collected serially on days 1, 3, 5 and 8 following CTT1403 dose administration to assess dosimetry, or exposure of normal organs and the tumor to the radionuclide, 177-lutetium. […] FIGS. 2-7 show the PET images collected prior to and after CTT1403 and serial SPECT/CT images collected from patients enrolled in the clinical trial. Further, Table 4 compares the doses in kidney and tumor reported by Violet et al (Violet, J., et al., “Dosimetry of (177)Lu-PSMA-617 in Metastatic Castration-Resistant Prostate Cancer: Correlations Between Pretherapeutic Imaging and Whole-Body Tumor Dosimetry with Treatment Outcomes” J Nucl Med, 2019. 60(4): p. 517-523) compared to findings to date in patients administered CTT1403.

[2] abbreviates: CTT1403 (7.5 GBq +/− 10%), preliminary, 2 tumors per patient in patients 14 and 15.
Setting [3] is: patient 1, dose 0.73 GBq (19.6 mCi).
The mark [4] stands for this setting: patient 4, dose 3.0 GBq (81.1 mCi).
[5] abbreviates: patient 6, dose 2.98 GBq (80.5 mCi).
[6] abbreviates: patient 14, dose 7.98 GBq (215.7 mCi).
Setting [7] is: patient 15, dose 7.77 GBq (210 mCi).

Turning to `O=C(O)CC[C@H](NP(=O)(O)OCCC[C@H](NC(=O)CC[C@H](NC(=O)CCCCCNC(=O)CCC(NC(=O)CCOCCOCCOCCOCCNC(=O)CCC(=O)N1Cc2ccccc2-c2c(nnn2CCCNC(=O)CN2CCN3CCN4CCN(CC2)CC(=O)[O][177Lu]([O]C(=O)C3)[O]C(=O)C4)-c2ccccc21)C(=O)NC(CCCCNC(=O)CCCc1ccc(I)cc1)C(=O)O)C(=O)O)C(=O)O)C(=O)O` (some centres unmarked) [CTT1403], the dose limiting organ entry in data set [1] (preclinical studies in rats) is “kidneys”. Further, the “expected kidney exposure estimated from preclinical studies in rats” value in data set [1] (predicted human kidney exposure from rat studies) is reported as approximately 5.2 Gy/GBq. For the same molecule, the “CTT1403 within tumor by SPECT” value with PSMA+ tumors (4.5 GBq, through 7 days post-administration (FIG. 9, patient 12)) is recorded as “uptake of CTT1403 in tumors; also recorded: still clearly present”. For the same molecule, the “uptake of CTT1403 in tumors by SPECT” value with PSMA+ tumors (24 hours after administration of 7.5 GBq (FIG. 10, patient 17)) is “distinct uptake”. For the same molecule, the “Tumor Dose to date, Dose Gy/GBq” value with PSMA+ tumors (setting [2]) is given as 1.948* Gy/GBq. The “Tumor Dose to date, Mean Dose (Gy)” value with PSMA+ tumors (setting [2]) was 14.61* Gy. This molecule gave a tumor dose in the data set on PSMA+ tumors (administered by 3.0 GBq) of approximately 1 Gy. Moreover, the “Tumor 1 (Gy)” value with PSMA+ tumors (setting [3]) is recorded as 0.122 Gy; in the data set with PSMA+ tumors (patient 2, dose 1.5 GBq (40.5 mCi)) it was 0.2461 Gy; in the data set with PSMA+ tumors (setting [4]) it was 1.282 Gy; in the data set on PSMA+ tumors (patient 5, dose 2.95 GBq (79.8 mCi)), 1.639 Gy; in the data set on PSMA+ tumors (setting [5]), 1.104 Gy; with PSMA+ tumors (setting [6]), 13.6 Gy. Further, the “Tumor 1 (Gy)” value with PSMA+ tumors (setting [7]) is listed as 22.4 Gy. Further, the “Tumor 2 (Gy)” value in the data set on PSMA+ tumors (setting [3]) was 0.1164 Gy; in the data set on PSMA+ tumors (patient 3, dose 2.03 GBq (54.8 mCi)), 0.2553 Gy; in the data set with PSMA+ tumors (setting [4]) it was 0.3729 Gy; in the data set on PSMA+ tumors (setting [5]), 0.329 Gy; with PSMA+ tumors (setting [6]), 12.7 Gy; in the data set on PSMA+ tumors (setting [7]), 9.74 Gy. Also, the “Tumor 3 (Gy)” value in the data set on PSMA+ tumors (setting [4]) turned out to be 1.906 Gy. Besides, the “tumor dose compared to 177Lu-PSMA-617” value in the data set on PSMA+ tumors (patients at 7.5 GBq+/−10%, early reported) was “at least similar and possibly even greater”. The “tumor Gy/GBq compared to 177Lu-PSMA-617 in patients with PSA<50%” value in the data set with PSMA+ tumors (vs patients with less than a 50% reduction in circulating PSA) is reported as “significantly outperform”.
